This is an account of results in patent US8207172B2 (Bayer Intellectual Property GmbH, priority 2004, dated 2012).

Where a name gives a salt, the structure may show the parent alone.

Assay [1] has as its system A431 cells (human epidermoid carcinoma). The assay can be described thus: In vitro tumor cell proliferation assay (Cell Titer-Glo luminescent cell viability), A431. Format: cell-based. The settings on record: A-431, 72 h, 72 hours of drug exposure, ATP luminescence readout, read-out: IC50, anti-proliferative activity (inhibition of cell proliferation). The essentials: (§1)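 A431 or BT474 cells were exposed 72 h at 37°C to serially diluted compounds (final 100 μM down to 64 pM, 0.1% DMSO). Viable cells were read by ATP luminescence (CellTiter-Glo) and IC50 values derived.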
In general terms: Cellular ATP, detected with luciferase, serves as a proxy for viable cell number.

Assay [2] concerns BT474 (human breast carcinoma). In words: In vitro tumor cell proliferation assay (Cell Titer-Glo luminescent cell viability), BT474. The class given is cell-based. The settings on record: BT-474, 72 h, BT474 cells, 72 hours of drug exposure, ATP luminescence readout, read-out: IC50, anti-proliferative activity (inhibition of cell proliferation). The essentials:
as §1

For `Cc1cc(Nc2ncnc3sc4c(c23)CCc2c-4cnn2CCN2CCN(C)CC2)ccc1O` [Example 316, 2-methyl-4-({3-[2-(4-methylpiperazin-1-yl)ethyl]-4,5-dihydro-3H-pyrimido[5′,4′:4,5]thieno[2,3-e]indazol-6-yl}amino)phenol], the IC50 in assay [1] and in assay [2] was not above 50 µM throughout.
In the case of `CN1CCN(CCn2ncc3c2CCc2c-3sc3ncnc(Nc4ccc(OCc5cccc(Cl)c5)c(Cl)c4)c23)CC1` [Example 317, N-{3-chloro-4-[(3-chlorobenzyl)oxy]phenyl}-3-[2-(4-methylpiperazin-1-yl)ethyl]-4,5-dihydro-3H-pyrimido[5′,4′:4,5]thieno[2,3-e]indazol-6-amine trifluoroacetate], the IC50 is not above 5 µM in assay [1] and not above 1 µM in assay [2].
As to `COc1cccc(COc2ccc(Nc3ncnc4sc5c(c34)CCc3c-5cnn3CCN3CCN(C)CC3)cc2Cl)c1` [Example 318, N-{3-chloro-4-[(3-methoxybenzyl)oxy]phenyl}-3-[2-(4-methylpiperazin-1-yl)ethyl]-4,5-dihydro-3H-pyrimido[5′,4′:4,5]thieno[2,3-e]indazol-6-amine], the IC50 in assay [1] and in assay [2] was not above 5 µM in each case.
For the compound `CN1CCN(CCn2ncc3c2CCc2c-3sc3ncnc(Nc4ccc(OCc5cccc(C(F)(F)F)c5)c(Cl)c4)c23)CC1` [Example 319, N-(3-chloro-4-{[3-(trifluoromethyl)benzyl]oxy}phenyl)-3-[2-(4-methylpiperazin-1-yl)ethyl]-4,5-dihydro-3H-pyrimido[5′,4′:4,5]thieno[2,3-e]indazol-6-amine], the IC50 in assay [1] and in assay [2] was not above 5 µM in each case.
`Cc1cccc(COc2ccc(Nc3ncnc4sc5c(c34)CCc3c-5cnn3CCN3CCN(C)CC3)cc2Cl)c1` [Example 320, N-{3-chloro-4-[(3-methylbenzyl)oxy]phenyl}-3-(2-(4-methylpiperazin-1-yl)ethyl]-4,5-dihydro-3H-pyrimido[5′,4′:4,5]thieno[2,3-e]indazol-6-amine trifluoroacetate]: the IC50 in assay [1] and in assay [2] was not above 5 µM each time.
In the case of `CN1CCN(CCn2ncc3c2CCc2c-3sc3ncnc(Nc4ccc(OCc5ccc(F)cc5)c(Cl)c4)c23)CC1` [Example 322, N-{3-chloro-4-[(4-fluorobenzyl)oxy]phenyl}-3-[2-(4-methylpiperazin-1-yl)ethyl]-4,5-dihydro-3H-pyrimido[5′,4′:4,5]thieno[2,3-e]indazol-6-amine trifluoroacelate], the values for the IC50 in assay [1] and in assay [2] were not above 5 µM and not above 1 µM, respectively.
For `Cc1cc(Nc2ncnc3sc4c(c23)CCc2c-4cnn2CCN2CCN(C)CC2)ccc1OCc1cccc(F)c1` [Example 323, N-{4-[(3-fluorobenzyl)oxy]-3-methylphenyl}-3-[2-(4-methylpiperazin-1-yl)ethyl]-4,5-dihydro-3H-pyrimido[5′,4′:4,5]thieno[2,3-e]indazol-6-amine], in that order: not above 5 µM and not above 1 µM.
For `COc1cccc(COc2ccc(Nc3ncnc4sc5c(c34)CCc3nn(CCN4CCN(C)CC4)cc3-5)cc2Cl)c1` [Example 324, N-{3-chloro-4-[(3-methoxybenzyl)oxy]phenyl}-2-[2-(4-methylpiperazin-1-yl)ethyl]-4,5-dihydro-2H-pyrimido[5′,4′:4,5]thieno[2,3-e]indazol-6-amine], in that order: not above 5 µM and not above 5 µM.
As for `CN1CCN(CCn2cc3c(n2)CCc2c-3sc3ncnc(Nc4ccc(OCc5ccc(F)cc5)c(Cl)c4)c23)CC1` [Example 326, N-{3-chloro-4-[(4-fluorobenzyl)oxy]phenyl}-2-[2-(4-methylpiperazin-1-yl)ethyl]-4,5-dihydro-2H-pyrimido[5′,4′:4,5]thieno[2,3-e]indazol-6-amine], the IC50 in assay [1] and in assay [2] was not above 5 µM throughout.
Take `CN1CCN(CCn2cc3c(n2)CCc2c-3sc3ncnc(Nc4ccc5nn(Cc6cccc(F)c6)cc5c4)c23)CC1` [Example 327, N-[2-(3-fluorobenzyl)-2H-indazol-5-yl]-2-[2-(4-methylpiperazin-1-yl)ethyl]-4,5-dihydro-2H-pyrimido[5′,4′:4,5]thieno[2,3-e]indazol-6-amine]: the IC50 in assay [1] and in assay [2] was not above 5 µM in each case.
As for `CN1CCN(CCn2cc3c(n2)CCc2c-3sc3ncnc(Nc4ccc(OCc5cccc(C(F)(F)F)c5)c(Cl)c4)c23)CC1` [Example 328, N-(3-chloro-4-{[3-(trifluoromethyl)benzyl]oxy}phenyl)-2-[2-(4-methylpiperazin-1-yl)ethyl]-4,5-dihydro-2H-pyrimido[5′,4′:4,5]thieno[2,3-e]indazol-6-amine], the IC50 in assay [1] and in assay [2] was not above 5 µM each time.
For `Cc1ccc(Nc2ncnc3sc4c(c23)CCc2nn(CCN3CCN(C)CC3)cc2-4)cc1O` [Example 329, 2-methyl-5-({2-[2-(4-methylpiperazin-1-yl)ethyl]-4,5-dihydro-2H-pyrimido[5′,4′:4,5]thieno[2,3-e]indazol-6-yl}amino)phenol], the IC50 in assay [1] and in assay [2] was not above 5 µM in each case.
As for `Cc1cccc(COc2ccc(Nc3ncnc4sc5c(c34)CCc3nn(CCN4CCN(C)CC4)cc3-5)cc2Cl)c1` [Example 330, N-{3-chloro-4-[(3-methylbenzyl)oxy]phenyl}-2-[2-(4 methylpiperazin-1-yl)ethyl]-4,5-dihydro-2H-pyrimido[5′,4′:4,5]thieno[2,3-e]indazol-6-amine], the IC50 in assay [1] and in assay [2] was not above 5 µM each time.
For `CN1CCN(CCn2cc3c(n2)CCc2c-3sc3ncnc(Nc4ccc(OCc5ccc(Cl)cc5)c(Cl)c4)c23)CC1` [Example 331, N-{3-chloro-4-[(4-chlorobenzyl)oxy]phenyl}-2-[2-(4-methylpiperazin-1-yl)ethyl]-4,5-dihydro-2H-pyrimido[5′,4′:4,5]thieno[2,3-e]indazol-6-amine], the IC50 was not above 5 µM in assay [1] and not above 1 µM in assay [2].
`CN1CCN(CCn2cc3c(n2)CCc2c-3sc3ncnc(Nc4ccc(OCc5ccccc5Cl)c(Cl)c4)c23)CC1` [Example 332, N-{3-chloro-4-[(2-chlorobenzyl)oxy]phenyl}-2-[2-(4-methylpiperazin-1-yl)ethyl]-4,5-dihydro-2H-pyrimido[5′,4′:4,5]thieno[2,3-e]indazol-6-amine]: the IC50 in assay [1] was not above 5 µM; in assay [2] it was not above 1 µM.
For `CN1CCN(CCn2cc3c(n2)CCc2c-3sc3ncnc(Nc4ccc(OCc5cccc(Cl)c5)c(Cl)c4)c23)CC1` [Example 333, N-{3-chloro-4-[(3-chlorobenzyl)oxy]phenyl}-2-[2-(4-methylpiperazin-1-yl)ethyl]-4,5-dihydro-2H-pyrimido[5′,4′:4,5]thieno[2,3-e]indazol-6-amine], in that order: not above 5 µM and not above 1 µM.
As to `CN1CCN(CCn2cc3c(n2)CCc2c-3sc3ncnc(Nc4ccc(OCc5ccccc5F)c(Cl)c4)c23)CC1` [Example 334, N-{3-chloro-4-[(2-fluorobenzyl)oxy]phenyl}-2-[2-(4-methylpiperazin-1-yl)ethyl]-4,5-dihydro-2H-pyrimido[5′,4′:4,5]thieno[2,3-e]indazol-6-amine], the values for the IC50 in assay [1] and in assay [2] were not above 5 µM and not above 1 µM, respectively.
On to `Cc1cc(Nc2ncnc3sc4c(c23)CCc2nn(CCN3CCN(C)CC3)cc2-4)ccc1OCc1cccc(F)c1` [Example 335, N-{4-[(3-fluorobenzyl)oxy]-3-methylphenyl}-2-[2-(4-methylpiperazin-1-yl)ethyl]-4,5-dihydro-2H-pyrimido[5′,4′:4,5]thieno[2,3-e]indazol-6-amine], for which the values for the IC50 in assay [1] and in assay [2] were not above 5 µM and not above 1 µM, respectively.
For `CN1CCN(CCn2cc3c(n2)CCc2c-3sc3ncnc(Nc4ccc(OCc5cccc(C#N)c5)c(Cl)c4)c23)CC1` [Example 336, 3-{[2-chloro-4-({2-{2-(4-methylpiperazin-1-yl)ethyl]-4,5-dihydro-2H-pyrimido[5′,4′:4,5]thieno[2,3-e]indazol-6-yl}amino)phenoxy]methyl} benzonitrile], in that order: not above 5 µM and not above 1 µM.
For `CN1CCN(CCn2cc3c(n2)CCc2c-3sc3ncnc(Nc4ccc5c(cnn5Cc5ccccn5)c4)c23)CC1` [Example 338, 2-[2-(4-methylpiperazin-1-yl)ethyl]-N-[1-(pyridin-2-ylmethyl)-1H-indazol-5-yl]-4,5-dihydro-2H-pyrimido[5′,4′:4,5]thieno[2,3-e]indazol-6-amine], in that order: not above 50 µM and not above 1 µM.
On to `CN1CCN(CCn2cc3c(n2)CCc2c-3sc3ncnc(Nc4ccc(Oc5cccnc5)cc4)c23)CC1` [Example 340, 2-[2-(4-methylpiperazin-1-yl)ethyl]-N-[4-(pyridin-3-yloxy)phenyl]-4,5-dihydro-2H-pyrimido[5′,4′:4,5]thieno[2,3-e]indazol-6-amine], for which the IC50 in assay [1] was not above 50 µM; in assay [2], not above 5 µM.
For the compound `Cc1cc(Oc2ccc(Nc3ncnc4sc5c(c34)CCc3nn(CCN4CCN(C)CC4)cc3-5)c(F)c2)ccn1` [Example 341, N-{2-fluoro-4-[(2-methylpyridin-4-yl)oxy]phenyl}-2-[2-(4-methylpiperazin-1-yl)ethyl]-4,5-dihydro-2H-pyrimido[5′,4′:4,5]thieno[2,3-e]indazol-6-amine], the values for the IC50 in assay [1] and in assay [2] were not above 50 µM and not above 5 µM, respectively.
Take `CN1CCN(CCn2cc3c(n2)CCc2c-3sc3ncnc(Nc4ccc(SCc5ccncc5)cc4)c23)CC1` [Example 342, 2-[2-(4-methylpiperazin-1-yl)ethyl]-N-{4-[(pyridin-4-ylmethyl)thio]phenyl}-4,5-dihydro-2H-pyrimido[5′,4′:4,5]thieno[2,3-e]indazol-6-amine]: the values for the IC50 in assay [1] and in assay [2] were not above 50 µM and not above 5 µM, respectively.
